Experimental data as given in US7626042B2, “O-substituted hydroxyaryl derivatives” (Institute of Medicinal Molecular Design, Inc., priority 2002, dated 2009).
Structures can show the parent of a compound that is named as a salt.

System: NF-κB activation
Test: Inhibitory activity against NF-κB activation, luciferase reporter assay under TNF-α stimulation
Format: cell-based, human
Conditions: HepG2 cells, TNF-α 40 ng/ml, 4 hours; for inhibition at 1 µg/mL / inhibition at 10 µg/mL: Homo sapiens, read-out: Inhibitory Ratio of NF-κ B Activation(%)
Protocol: Inhibitory activity against NF-κB activation was measured by referring to the method of Hill et al. (Cell, (USA), in 1993, Vol. 73, No. 2, p. 395-406). Using a transfection reagent(Effectene; QIAGEN), the human hepatoma cell strain HepG2 was transfected with a plasmid (pNFκ Luc Reporter Plasmid; STRATAGENE) integrated with an oligonucleotide having five tandem copies of NF-κB binding sequences(TGGGGACTTTCCGC) on a upstream region of firefly luciferase gene (Luc) according to the QIAGEN's protocol, and the cells were incubated for 6 to 24 hours. Then the cells were cultured for 4 hours after the addition of TNF-α (40 ng/ml) in the presence of a test compound, and intracellular luciferase activity was measured by using PicaGene LT (TOYO INK MFG Co., Ltd.) and a chemical luminescence measurement apparatus(SPECTRAFluor Plus; TECAN). The inhibitory ratio was measured as a ratio relative to a value of the luciferase activity in the absence of the test compound.

Compound | Inhibitory Ratio of NF-κ B Activation(%) (Drug Concentration 1 μg/mL) | Inhibitory Ratio of NF-κ B Activation(%) (Drug Concentration 10 μg/mL) | inhibition at 1 µg/mL (Drug Concentration 1 μg/mL) [%] | inhibition at 10 µg/mL (Drug Concentration 10 μg/mL) [%]
CC(C)C[C@H](NC(=O)[C@@H](N)CC(=O)O)C(=O)Oc1ccc(Cl)cc1C(=O)Nc1cc(C(F)(F)F)cc(C(F)(F)F)c1.Cl [Compound 38] | 97.8 | 98.6 | – | –
CC(C)C[C@H](NC(=O)[C@H](CCCCNC(=O)OC(C)(C)C)NC(=O)OC(C)(C)C)C(=O)Oc1ccc(Cl)cc1C(=O)Nc1cc(C(F)(F)F)cc(C(F)(F)F)c1 [Compound 39, 2-{N-[N^α,N^ε-di(tert-butoxycarbonyl)-L-lysyl]-L-leucyl}oxy-5-chloro-N-[3,5-bis(trifluoromethyl)phenyl]benzamide] | – | – | 96.7 | 98.4
CC(C)C[C@H](NC(=O)[C@@H](N)CCCCN)C(=O)Oc1ccc(Cl)cc1C(=O)Nc1cc(C(F)(F)F)cc(C(F)(F)F)c1.Cl.Cl [Compound 40] | 96.2 | 97.5 | – | –
CC(C)C[C@H](N)C(=O)N[C@@H](Cc1ccccc1)C(=O)Oc1ccc(Cl)cc1C(=O)Nc1cc(C(F)(F)F)cc(C(F)(F)F)c1 [Compound 41, 5-Chloro-2-[N-(L-leucyl)-L-phenylalanyl]oxy-N-[3,5-bis(trifluoromethyl)phenyl]-benzamide hydrochloride] | – | – | 91.4 | 99.1
N[C@@H](CC(=O)O)C(=O)N[C@@H](Cc1ccccc1)C(=O)Oc1ccc(Cl)cc1C(=O)Nc1cc(C(F)(F)F)cc(C(F)(F)F)c1 [Compound 42, 2-[N-(α-L-aspartyl)-L-phenylalanyl]oxy-5-chloro-N-[3,5-bis(trifluoromethyl)-phenyl]benzamide hydrochloride] | – | – | 92.7 | 96.9
COC(=O)Oc1ccc(Cl)cc1C(=O)Nc1cc(C(F)(F)F)cc(C(F)(F)F)c1 [Compound 43, 5-Chloro-2-(methoxycarbonyl)oxy-N-[3,5-bis(trifluoromethyl)phenyl]benzamide] | – | – | 94.9 | 97.6
CS(=O)(=O)Oc1ccc(Cl)cc1C(=O)Nc1cc(C(F)(F)F)cc(C(F)(F)F)c1 [Compound 44] | 85.9 | 98.6 | – | –
CCCS(=O)(=O)Oc1ccc(Cl)cc1C(=O)Nc1cc(C(F)(F)F)cc(C(F)(F)F)c1 [Compound 45] | 84.7 | 95.4 | – | –
CC(C)S(=O)(=O)Oc1ccc(Cl)cc1C(=O)Nc1cc(C(F)(F)F)cc(C(F)(F)F)c1 [Compound 46] | 89.5 | 96.3 | – | –
Cc1ccc(S(=O)(=O)Oc2ccc(Cl)cc2C(=O)Nc2cc(C(F)(F)F)cc(C(F)(F)F)c2)cc1 [Compound 47] | 84.7 | 92.5 | – | –
CN(C)S(=O)(=O)Oc1ccc(Cl)cc1C(=O)Nc1cc(C(F)(F)F)cc(C(F)(F)F)c1 [Compound 48] | 37.9 | 90.4 | – | –
O=C(Nc1cc(C(F)(F)F)cc(C(F)(F)F)c1)c1cc(Cl)ccc1OS(=O)(=O)O [Compound 49] | 80.1 | 99.0 | – | –
O=C(Nc1cc(C(F)(F)F)cc(C(F)(F)F)c1)c1cc(Cl)ccc1OP(=O)(OCc1ccccc1)OCc1ccccc1 [Compound 50, 5-chloro-2-(dibenzylphosphono)oxy-N-[3,5-bis(trifluoromethyl)phenyl]benzamide] | – | – | 90.7 | 97.1
O=C(Nc1cc(C(F)(F)F)cc(C(F)(F)F)c1)c1cc(Cl)ccc1OP(=O)(O)O [Compound 51, 5-chloro-2-phosphonooxy-N-[3,5-bis(trifluoromethyl)phenyl]benzamide] | – | – | 89.7 | 96.6
O=C(Nc1cc(C(F)(F)F)cc(C(F)(F)F)c1)c1cc(Cl)ccc1OP(=O)([O-])O.[Na+] [Compound 52] | 76.3 | 96.5 | – | –
COc1ccccc1NC(=O)c1cc2cc(Br)ccc2cc1OP(=O)(O)O [Compound 53] | 21.5 | 92.0 | – | –
CC(C)NC(=O)Oc1ccc(Cl)cc1C(=O)Nc1cc(C(F)(F)F)cc(C(F)(F)F)c1 [Compound 54] | 96.0 | 98.0 | – | –
O=C(NCc1ccccc1)Oc1ccc(Cl)cc1C(=O)Nc1cc(C(F)(F)F)cc(C(F)(F)F)c1 [Compound 55] | 97.1 | 99.1 | – | –

Compound | Inhibitory Ratio of NF-κ B Activation(%) (Drug Concentration 1 μg/mL) | Inhibitory Ratio of NF-κ B Activation(%) (Drug Concentration 10 μg/mL) | inhibition at 1 µg/mL (Drug Concentration 1 μg/mL) [%] | inhibition at 10 µg/mL (Drug Concentration 10 μg/mL) [%]
CCOC(=O)CNC(=O)Oc1ccc(Cl)cc1C(=O)Nc1cc(C(F)(F)F)cc(C(F)(F)F)c1 [Compound 56, 5-chloro-2-{N-[(ethoxycarbonyl)methyl]carbamoyl}oxy-N-[3,5-bis(trifluoromethyl)-phenyl]benzamide] | – | – | 96.8 | 98.9
O=C(O)CNC(=O)Oc1ccc(Cl)cc1C(=O)Nc1cc(C(F)(F)F)cc(C(F)(F)F)c1 [Compound 57, 2-[N-(carboxymethyl)carbamoyl]oxy-5-chloro-N-[3,5-bis(trifluoromethyl)phenyl]-benzamide] | – | – | 95.4 | 97.2
COC(=O)[C@H](C)NC(=O)Oc1ccc(Cl)cc1C(=O)Nc1cc(C(F)(F)F)cc(C(F)(F)F)c1 [Compound 58] | 97.9 | 98.8 | – | –
COC(=O)[C@H](Cc1ccccc1)NC(=O)Oc1ccc(Cl)cc1C(=O)Nc1cc(C(F)(F)F)cc(C(F)(F)F)c1 [Compound 59] | 96.2 | 97.8 | – | –
COC(=O)[C@H](COC(C)(C)C)NC(=O)Oc1ccc(Cl)cc1C(=O)Nc1cc(C(F)(F)F)cc(C(F)(F)F)c1 [Compound 60] | 97.7 | 98.9 | – | –
CC(C)(C)OC(=O)[C@H](Cc1ccccc1)NC(=O)CNC(=O)Oc1ccc(Cl)cc1C(=O)Nc1cc(C(F)(F)F)cc(C(F)(F)F)c1 [Compound 61, (S)-2-[N-({N-[1-(tert-butoxycarbonyl)-2-phenylethyl]carbamoyl}methyl)carbamoyl]oxy-5-chloro-N-[3,5-bis(trifluoromethyl)phenyl]benzamide] | – | – | 98.6 | 99.2
O=C(CNC(=O)Oc1ccc(Cl)cc1C(=O)Nc1cc(C(F)(F)F)cc(C(F)(F)F)c1)N[C@@H](Cc1ccccc1)C(=O)O [Compound 62] | 96.8 | 97.8 | – | –
CC(C)(C)OC(=O)C[C@H](NC(=O)CNC(=O)Oc1ccc(Cl)cc1C(=O)Nc1cc(C(F)(F)F)cc(C(F)(F)F)c1)C(=O)OC(C)(C)C [Compound 63, (S)-2-[N-({N-[1,2-di(tert-butoxycarbonyl)ethyl]carbamoyl}-methyl)carbamoyl]oxy-5-chloro-N-[3,5-bis(trifluoromethyl)phenyl]benzamide] | – | – | 97.1 | 98.2
O=C(O)C[C@H](NC(=O)CNC(=O)Oc1ccc(Cl)cc1C(=O)Nc1cc(C(F)(F)F)cc(C(F)(F)F)c1)C(=O)O [Compound 64] | 96.3 | 97.5 | – | –
CC(C)(C)OC(=O)NCCCC[C@H](NC(=O)CNC(=O)Oc1ccc(Cl)cc1C(=O)Nc1cc(C(F)(F)F)cc(C(F)(F)F)c1)C(=O)OC(C)(C)C [Compound 65] | 95.8 | 97.3 | – | –
CSc1ccc(NC(=O)Oc2cc3ccccc3cc2C(=O)Nc2ccccc2)cc1 [Compound 66] | 12.2 | 41.4 | – | –
CCN(CC)C(=O)Oc1ccc(Cl)cc1C(=O)Nc1cc(C(F)(F)F)cc(C(F)(F)F)c1 [Compound 68] | 53.0 | 47.4 | – | –
CN(C(=O)Oc1ccc(Cl)cc1C(=O)Nc1cc(C(F)(F)F)cc(C(F)(F)F)c1)c1ccccc1 [Compound 69] | 29.7 | 18.7 | – | –
O=C(Nc1cc(C(F)(F)F)cc(C(F)(F)F)c1)c1cc(Cl)ccc1OC(=O)N1CCCC1 [Compound 70] | 48.1 | 89.6 | – | –
O=C(Nc1cc(C(F)(F)F)cc(C(F)(F)F)c1)c1cc(Cl)ccc1OC(=O)N1CCOCC1 [Compound 71] | 70.6 | 78.0 | – | –
CN1CCN(C(=O)Oc2ccc(Cl)cc2C(=O)Nc2cc(C(F)(F)F)cc(C(F)(F)F)c2)CC1 [Compound 72] | 39.4 | 35.2 | – | –
O=C(Nc1cc(C(F)(F)F)cc(C(F)(F)F)c1)c1cc(Cl)ccc1OC(=O)N1CCC(C(=O)O)CC1 [Compound 74] | 56.2 | 58.1 | – | –
CCOC(=O)CN(CC(=O)OCC)C(=O)Oc1ccc(Cl)cc1C(=O)Nc1cc(C(F)(F)F)cc(C(F)(F)F)c1 [Compound 75, 2-{N,N-bis[(ethoxycarbonyl)methyl]carbamoyl}oxy-5-chloro-N-[3,5-bis(trifluoromethyl)phenyl]benzamide] | – | – | 94.3 | 94.9
